These results are taken from PubChem BioAssay (NCI).

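Growth conditions: 96-well plates. Treatment: test compound, 48 hours, 5 concentrations. Analysis: linear interpolation between bracketing concentrations; unreached endpoints set to highest concentration. Abbreviation: GI50, concentration required for 50% inhibition of growth. The concentration for full growth arrest is given as TGI.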

Test systems include BT-549 breast; MCF7 breast; MDA-MB-231 breast; NCI/ADR-RES ovarian; MDA-MB-435.
Assay in all cases: NCI-60 cell line screen, 48 h

As to `COc1cccc(/C=C/C(=O)c2cc3c(N)c(C(=O)Nc4cccc5ccccc45)sc3nc2C)c1`, the GI50 with BT-549 breast is 1.2 µM; with MCF7 breast it was 0.339 µM; in the test with MDA-MB-231 breast, 1.22 µM; in the test on NCI/ADR-RES ovarian it was 1.33 µM. Further, the TGI in the test with BT-549 breast was 3.88 µM; in the test on MCF7 breast, above 50 µM; with MDA-MB-231 breast, 3.26 µM; with NCI/ADR-RES ovarian it was 5.75 µM.

Regarding `CC1CCC2N(C1)CC1C3(O)CC45OC6(O)C(O)CCC4(C)C6CCC5C3(O)CC(O)C1(O)C2(C)O` (configuration not stated), the TGI with BT-549 breast, with MCF7 breast, in the test with MDA-MB-231 breast, in the test on MDA-MB-435 and in the test on NCI/ADR-RES ovarian was above 100 µM each time.

Regarding `CC(=O)N(Cc1ccccc1)c1ccccc1I(=O)=O`, the GI50 is above 100 µM in the test on BT-549 breast; 16.5 µM in the test with MCF7 breast; 50.4 µM in the test on MDA-MB-231 breast; 49.9 µM in the test with MDA-MB-435; 37.8 µM in the test on NCI/ADR-RES ovarian. Besides, the TGI in the test with BT-549 breast was above 100 µM; with MCF7 breast, 40.5 µM; with MDA-MB-231 breast, above 100 µM; in the test on MDA-MB-435, above 100 µM; in the test on NCI/ADR-RES ovarian, above 100 µM.

As for `CC1=C(C(=O)Nc2ccc(Cl)c(Cl)c2)C(c2ccccc2O)NC(=O)N1` (configuration not stated), the GI50 is 15.3 µM with BT-549 breast, 28 µM in the test with MDA-MB-231 breast, 27.4 µM in the test on MDA-MB-435 and above 50 µM in the test on NCI/ADR-RES ovarian. The TGI in the test with BT-549 breast, with MDA-MB-231 breast, in the test on MDA-MB-435 and in the test with NCI/ADR-RES ovarian was above 50 µM in each case.

For `OCNCCNc1nc2ccccc2c2[nH]c3ccccc3c12`, the GI50 is 1.15 µM in the test with BT-549 breast; 1.24 µM with MCF7 breast; 1.24 µM in the test with MDA-MB-231 breast; 1.46 µM with MDA-MB-435; 7.17 µM in the test with NCI/ADR-RES ovarian. Moreover, the TGI stood at 3.48 µM in the test on BT-549 breast; 4.5 µM in the test on MCF7 breast; 3.77 µM in the test with MDA-MB-231 breast; 5.11 µM with MDA-MB-435; 22.6 µM in the test on NCI/ADR-RES ovarian.

Take `CO[C@@]12[C@@H]3NC3CN1C1=C(C(=O)C(N)=C(C)C1=O)[C@@H]2COC(N)=O` (some centres not stated): the GI50 in the test on BT-549 breast is 1.3 µM; in the test with MCF7 breast, 0.0809 µM; with MDA-MB-231 breast it was 8.95 µM; in the test with MDA-MB-435, 1.13 µM; in the test on NCI/ADR-RES ovarian, 3.45 µM. The TGI is 6.74 µM in the test on BT-549 breast; 7.55 µM with MCF7 breast; above 54.8 µM in the test with MDA-MB-231 breast; 8.3 µM in the test with MDA-MB-435; above 90.5 µM in the test on NCI/ADR-RES ovarian.

For the compound `COc1cccc(C2NC(=S)NC(C)=C2C(=O)Nc2ccc(Cl)c(Cl)c2)c1` (configuration not stated), the GI50 in the test with BT-549 breast was 7.15 µM; in the test on MDA-MB-231 breast, 9.41 µM; with MDA-MB-435 it was 8.22 µM; in the test with NCI/ADR-RES ovarian it was above 50 µM. Further, the TGI in the test on BT-549 breast was 16.8 µM; in the test on MDA-MB-231 breast it was 19.6 µM; in the test on MDA-MB-435, 16.8 µM; in the test on NCI/ADR-RES ovarian, above 50 µM.

With `CC1(C)CC[C@]2(C(N)=O)CC[C@]3(C)C(=CC[C@@H]4[C@@]5(C)C/C(=C/c6ccncc6)C(=O)C(C)(C)[C@@H]5CC[C@]43C)[C@@H]2C1`, the GI50 with MCF7 breast was 2.52 µM; in the test with MDA-MB-231 breast, 1.86 µM; in the test with NCI/ADR-RES ovarian, 2.42 µM. Besides, the TGI stood at 10.5 µM in the test on MCF7 breast, 4.15 µM with MDA-MB-231 breast and 6.99 µM in the test on NCI/ADR-RES ovarian.

Consider `O=C(NCCCCCCCNC(=O)OCc1ccc2c(Cl)cc(Cl)c(O)c2n1)OCc1ccc2c(Cl)cc(Cl)c(O)c2n1`, for which the GI50 was 0.359 µM in the test on BT-549 breast, 1.13 µM in the test on MDA-MB-231 breast, 0.297 µM in the test on MDA-MB-435 and 0.338 µM in the test on NCI/ADR-RES ovarian. The TGI in the test on BT-549 breast was 1.42 µM; in the test on MDA-MB-231 breast it was 2.45 µM; in the test with MDA-MB-435, 0.931 µM; in the test on NCI/ADR-RES ovarian it was 3.59 µM.

Consider `CC1OC(OC2CCC3(C=O)C4CCC5(C)C(C6=CC(=O)OC6)CCC5(O)C4CCC3(O)C2)C(O)C(O)C1O` (configuration not stated), for which the TGI worked out at 4.44e-05 µM in the test on BT-549 breast, 0.0025 µM with MDA-MB-231 breast, 7.77e-05 µM with MDA-MB-435 and 6.17e-05 µM with NCI/ADR-RES ovarian.

Consider `CC1CC2(C)CC(=O)C1C1C(=O)N(CCN3CCCCC3)C(=O)C12` (configuration not stated), for which the GI50 in the test on BT-549 breast, in the test on MDA-MB-231 breast, with MDA-MB-435 and with NCI/ADR-RES ovarian was above 100 µM each time. The TGI with BT-549 breast, in the test on MDA-MB-231 breast, in the test on MDA-MB-435 and in the test on NCI/ADR-RES ovarian was above 100 µM in each case.

In the case of `N=C1C=C(N)C(=O)c2[nH]c(=O)ccc21`, the TGI with MCF7 breast was 1.78 µM; in the test with MDA-MB-231 breast, 3.46 µM; in the test on MDA-MB-435, 2.3 µM; with NCI/ADR-RES ovarian, 4.86 µM.

With `O=C1CN(/N=C/c2ccc(-c3ccc(F)cc3)o2)C(=O)N1`, the TGI with MCF7 breast is above 100 µM; in the test on MDA-MB-231 breast, above 100 µM; with MDA-MB-435, 41.1 µM; with NCI/ADR-RES ovarian, above 100 µM.

In the case of `COc1cnc2cc(C(=O)O)c3ccccc3c2c1`, the TGI in the test on MCF7 breast, with MDA-MB-231 breast, with MDA-MB-435 and in the test with NCI/ADR-RES ovarian was above 100 µM throughout.
